In patent US9670227B2, “Thienopyrimidine derivatives, a process for their preparation and pharmaceutical compositions containing them” (LES LABORATOIRES SERVIER, priority 2013, dated 2017):
Read-outs that look alike come from different tables or passages of the source.

Columns and labels:
Mcl-1 protein = Mcl-1 protein (UniProtKB primary accession number: Q07820) (Homo sapiens, UniProt Q07820); experiment: Inhibition of Mcl-1 by fluorescence polarisation, Method 1; format: binding; conditions: read-out: IC50 (M) Mcl-1 FP
Summary of the method: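 FP readout of relative binding potency. Mcl-1 5 nM final, fluorescein-labelled ligand 1 nM final; buffer 10 mM HEPES, 150 mM NaCl, 0.05% Tween 20, pH 7.4; 11-pt dilution series, 5% DMSO final.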

[1] = tested on: H929 multiple myeloma tumour line; experiment: In vitro cytotoxicity, Microculture Tetrazolium Assay; format: cell-based; conditions: H929 cells, 48 hours exposure, MTT, read-out: IC50 (μM) MTT H929
Description: The cytotoxicity studies were carried out on the H929 multiple myeloma tumour line.
The cells are distributed onto microplates and exposed to the test compounds for 48 hours.

[2] = fluorescence polarisation test, Method 2 values are underlined in the patent (underlining not visible here)
[3] = fluorescence polarisation, Method 1, or Method 2

Mcl-1 protein, sequence (Q07820 whole entry): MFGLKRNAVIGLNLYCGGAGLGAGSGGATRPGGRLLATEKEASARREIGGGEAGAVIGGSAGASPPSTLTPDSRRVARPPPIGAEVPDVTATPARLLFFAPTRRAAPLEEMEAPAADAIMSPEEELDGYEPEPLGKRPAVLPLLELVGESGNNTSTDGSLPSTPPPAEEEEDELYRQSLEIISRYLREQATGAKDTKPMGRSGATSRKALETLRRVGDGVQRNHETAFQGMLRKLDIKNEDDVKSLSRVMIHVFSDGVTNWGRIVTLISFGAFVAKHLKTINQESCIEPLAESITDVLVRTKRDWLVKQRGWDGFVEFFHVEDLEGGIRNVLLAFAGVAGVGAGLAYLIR

| Structure (SMILES) | IC50 (Mcl-1 protein; [2]) | IC50 (Mcl-1 protein; [3]) | IC50 ([1]; Homo sapiens, NCI-H929, 48 h) | IC50 [1] |
| --- | --- | --- | --- | --- |
| Cc1c(-c2c(-c3ccc(Cl)o3)sc3ncnc(OC(Cc4ccccc4OCc4ccnc(N5CCOCC5)n4)C(=O)O)c23)ccc(OCCN2CCN(C)CC2)c1Cl [Example 368, (2R)-2-{[6-(5-chlorofuran-2-yl)-(5Sa)-5-{3-chloro-2-methyl-4-[2-(4-methylpiperazin-1-yl)ethoxy]phenyl}thieno[2,3-d]pyrimidin-4-yl]oxy}-3-(2-{[2-(morpholin-4-yl)pyrimidin-4-yl]methoxy}phenyl)propanoic acid] | 1.4e-08 M | – | 0.005 µM | – |
| CCc1sc2ncnc(O[C@H](Cc3ccccc3)C(=O)O)c2c1-c1ccc(OCCN(C)CCO)c(Cl)c1C [Example 411, (2R)-2-{[(5Sa)-5-(3-chloro-4-{2-[(2-hydroxyethyl)(methyl)amino]ethoxy}-2-methylphenyl)-6-ethylthieno[2,3-d]pyrimidin-4-yl]oxy}-3-phenylpropanoic acid] | – | 3.4e-08 M | – | 19 µM |
| COc1ccccc1CC(Oc1ncnc2sc(-c3ccco3)c(-c3ccc(OC4CCN(C)C4)c(Cl)c3C)c12)C(=O)O [Example 303, (2R)-2-{[(5Sa)-5-{3-chloro-2-methyl-4-[(1-methylpyrrolidin-3-yl)oxy]phenyl}-6-(furan-2-yl)thieno[2,3-d]pyrimidin-4-yl]oxy}-3-(2-methoxyphenyl)propanoic acid] | 9.3e-09 M | – | 0.998 µM | – |
| Cc1c(-c2c(-c3ccc(F)cc3)sc3ncnc(OC(Cc4ccccc4OCc4cnccn4)C(=O)O)c23)ccc(OCC2CCCN2C)c1Cl [Example 143, (2R)-2-{[(5Sa)-5-{3-chloro-2-methyl-4-[(1-methylpyrrolidin-2-yl)methoxy]phenyl}-6-(4-fluorophenyl)thieno[2,3-d]pyrimidin-4-yl]oxy}-3-[2-(pyrazin-2-ylmethoxy)phenyl]propanoic acid] | 2.6e-08 M | – | 1.61 µM | – |
| CCc1sc2ncnc(OC(Cc3ccccc3)C(=O)O)c2c1-c1cc([N+](=O)[O-])c(OCCN2CCN(C)CC2)c(Cl)c1C [Example 435, (2R)-2-[((5Sa)-5-{3-chloro-2-methyl-4-[2-(4-methylpiperazin-1-yl)ethoxy]-5-nitrophenyl}-6-ethylthieno[2,3-d]pyrimidin-4-yl)oxy]-3-phenylpropanoic acid] | – | 3.2e-07 M | 11.1 µM | – |
| Cc1c(-c2c(-c3ccc(F)cc3)sc3ncnc(OC(Cc4ccccc4OCc4ccn(CC5CCCCC5)n4)C(=O)O)c23)ccc(OCCN2CCN(C)CC2)c1Cl [Example 15, (2R)-2-{[(5Sa)-5-{3-chloro-2-methyl-4-[2-(4-methylpiperazin-1-yl)ethoxy]phenyl}-6-(4-fluorophenyl)thieno[2,3-d]pyrimidin-4-yl]oxy}-3-(2-{[1-(cyclohexylmethyl)-1H-pyrazol-3-yl]methoxy}phenyl)propanoic acid] | 3.7e-08 M | – | 0.494 µM | – |
| Cc1c(-c2c(-c3ccc(F)cc3)sc3ncnc(OC(Cc4ccccc4OCc4cnccn4)C(=O)O)c23)ccc(OCCN(C)C)c1Cl [Example 134, (2R)-2-{[(5Sa)-5-{3-chloro-4-[2-(dimethylamino)ethoxy]-2-methylphenyl}-6-(4-fluorophenyl)thieno[2,3-d]pyrimidin-4-yl]oxy}-3-[2-(pyrazin-2-ylmethoxy)phenyl]propanoic acid] | 1.3e-08 M | – | 0.193 µM | – |
| Cc1c(-c2c(-c3ccc(F)cc3)sc3ncnc(OC(Cc4ccccc4OCc4ccnc(-c5cccs5)c4)C(=O)O)c23)ccc(OCCN2CCN(C)CC2)c1Cl [Example 18, (2R)-2-{[(5Sa)-5-{3-chloro-2-methyl-4-[2-(4-methylpiperazin-1-yl)ethoxy]phenyl}-6-(4-fluorophenyl)thieno[2,3-d]pyrimidin-4-yl]oxy}-3-(2-{[2-(thiophen-2-yl)pyridin-4-yl]methoxy}phenyl)propanoic acid] | 8.3e-09 M | – | 0.076 µM | – |
| Cc1c(-c2c(-c3ccsc3)sc3ncnc(OC(Cc4ccccc4)C(=O)O)c23)ccc(OCCN2CCN(C)CC2)c1Cl [Example 510, (2R)-2-{[(5Sa)-5-{3-chloro-2-methyl-4-[2-(4-methylpiperazin-1-yl)ethoxy]phenyl}-6-(thiophen-3-yl)thieno[2,3-d]pyrimidin-4-yl]oxy}-3-phenylpropanoic acid] | – | 3.9e-08 M | 0.639 µM | – |
| Cc1c(-c2c(-c3ccco3)sc3ncnc(OC(Cc4ccccc4OC(F)F)C(=O)O)c23)ccc(OCCN2CCN(C)CC2)c1Cl [Example 338, (2R)-2-{[(5Sa)-5-{3-chloro-2-methyl-4-[2-(4-methylpiperazin-1-yl)ethoxy]phenyl}-6-(furan-2-yl)thieno[2,3-d]pyrimidin-4-yl]oxy}-3-[2-(difluoromethoxy)phenyl]propanoic acid] | 3e-08 M | – | 1.04 µM | – |
| CCOc1cccc(COc2ccccc2CC(Oc2ncnc3sc(-c4ccc(F)cc4)c(-c4ccc(OCCN5CCN(C)CC5)c(Cl)c4C)c23)C(=O)O)n1 [Example 13, (2R)-2-{[(5Sa)-5-{3-chloro-2-methyl-4-[2-(4-methylpiperazin-1-yl)ethoxy]phenyl}-6-(4-fluorophenyl)thieno[2,3-d]pyrimidin-4-yl]oxy}-3-{2-[(6-ethoxypyridin-2-yl)methoxy]phenyl}propanoic acid] | 2.2e-08 M | – | 0.146 µM | – |
| Cc1c(-c2c(-c3ccc(Cl)o3)sc3ncnc(OC(Cc4ccccc4OCc4cocn4)C(=O)O)c23)ccc(OCCN2CCN(C)CC2)c1Cl [Example 376, (2R)-2-{[6-(5-chlorofuran-2-yl)-(5Sa)-5-{3-chloro-2-methyl-4-[2-(4-methylpiperazin-1-yl)ethoxy]phenyl}thieno[2,3-d]pyrimidin-4-yl]oxy}-3-[2-(1,3-oxazol-4-ylmethoxy)phenyl]propanoic acid] | 2e-09 M | – | 0.076 µM | – |
| Cc1c(-c2c(-c3ccc(F)cc3)sc3ncnc(OC(Cc4ccccc4OCC(F)F)C(=O)O)c23)ccc(OCCN2CCN(C)CC2)c1Cl [Example 4, (2R)-2-{[(5Sa)-5-{3-chloro-2-methyl-4-[2-(4-methylpiperazin-1-yl)ethoxy]phenyl}-6-(4-fluorophenyl)thieno[2,3-d]pyrimidin-4-yl]oxy}-3-[2-(2,2-difluoroethoxy)phenyl]propanoic acid] | 1.6e-08 M | – | 0.192 µM | – |

The next lines start with results.

| IC50 (Mcl-1 protein; [2]) | IC50 (Mcl-1 protein; [3]) | Structure (SMILES) | IC50 ([1]; Homo sapiens, NCI-H929, 48 h) | IC50 [1] |
| --- | --- | --- | --- | --- |
| – | 7e-09 M | CCCCn1nccc1COc1ccccc1CC(Oc1ncnc2sc(-c3ccc(N4CCOCC4)nc3)c(-c3ccc(OCCN4CCN(C)CC4)c(Cl)c3C)c12)C(=O)O [Example 619, (2R)-3-{2-[(1-butyl-1H-pyrazol-5-yl)methoxy]phenyl}-2-[((5Sa)-5-{3-chloro-2-methyl-4-[2-(4-methylpiperazin-1-yl)ethoxy]phenyl}-6-[6-(morpholin-4-yl)pyridin-3-yl]thieno[2,3-d]pyrimidin-4-yl)oxy]propanoic acid] | 0.336 µM | – |
| – | 1.12e-09 M | COc1ccccc1-c1nccc(COc2ccccc2CC(Oc2ncnc3sc(-c4ccc(OCc5cccs5)cc4)c(-c4ccc(OCCN5CCN(C)CC5)c(Cl)c4C)c23)C(=O)O)n1 [Example 777, (2R)-2-[((5Sa)-5-{3-chloro-2-methyl-4-[2-(4-methylpiperazin-1-yl)ethoxy]phenyl}-6-[4-(thiophen-2-ylmethoxy)phenyl]thieno[2,3-d]pyrimidin-4-yl)oxy]-3-(2-{[2-(2-methoxyphenyl)pyrimidin-4-yl]methoxy}phenyl)propanoic acid] | 0.008 µM | – |
| – | 5.9e-09 M | CCCCn1nccc1COc1ccccc1CC(Oc1ncnc2sc(-c3ccc(NCCOC)nc3)c(-c3ccc(OCCN4CCN(C)CC4)c(Cl)c3C)c12)C(=O)O [Example 620, (2R)-3-{2-[(1-butyl-1H-pyrazol-5-yl)methoxy]phenyl}-2-[((5Sa)-5-{3-chloro-2-methyl-4-[2-(4-methylpiperazin-1-yl)ethoxy]phenyl}-6-{6-[(2-methoxyethyl)amino]pyridin-3-yl}thieno[2,3-d]pyrimidin-4-yl)oxy]propanoic acid] | 0.532 µM | – |
| – | 9.6e-09 M | COc1ccc(-c2sc3ncnc(OC(Cc4ccccc4OCc4ccnn4CC(F)(F)F)C(=O)O)c3c2-c2ccc(OCCN3CCN(C)CC3)c(Cl)c2C)cn1 [Example 696, (2R)-2-{[(5Sa)-5-{3-chloro-2-methyl-4-[2-(4-methylpiperazin-1-yl)ethoxy]phenyl}-6-(6-methoxypyridin-3-yl)thieno[2,3-d]pyrimidin-4-yl]oxy}-3-(2-{[1-(2,2,2-trifluoroethyl)-1H-pyrazol-5-yl]methoxy}phenyl)propanoic acid] | 0.05 µM | – |
| – | 5.2e-09 M | COc1ccccc1CC(Oc1ncnc2sc(-c3cccc(Cl)c3F)c(-c3ccc(OCCN4CCN(C)CC4)c(Cl)c3C)c12)C(=O)O [Example 559, (2R)-2-{[6-(3-chloro-2-fluorophenyl)-(5Sa)-5-{3-chloro-2-methyl-4-[2-(4-methylpiperazin-1-yl)ethoxy]phenyl}thieno[2,3-d]pyrimidin-4-yl]oxy}-3-(2-methoxyphenyl)propanoic acid] | 0.293 µM | – |
| – | 1.04e-09 M | COc1ccccc1-c1nccc(COc2ccccc2CC(Oc2ncnc3sc(-c4ccc(OCc5ccc(C)cc5)cc4)c(-c4ccc(OCCN5CCN(C)CC5)c(Cl)c4C)c23)C(=O)O)n1 [Example 768, (2R)-2-[((5Sa)-5-{3-chloro-2-methyl-4-[2-(4-methylpiperazin-1-yl)ethoxy]phenyl}-6-{4-[(4-methylbenzyl)oxy]phenyl}thieno[2,3-d]pyrimidin-4-yl)oxy]-3-(2-{[2-(2-methoxyphenyl)pyrimidin-4-yl]methoxy}phenyl)propanoic acid] | 0.039 µM | – |
